Experimental data taken from patent US11666532B2, “Tranexamic acid oral solution” (Hyloris Developments SA, priority 2018, dated 2023).
Like-named read-outs stand apart in the source and are kept apart here.

Columns and labels:
serum albumin = serum albumin (Homo sapiens, UniProt P02768); conditions: cited from earlier work
[1] = system: bleeding during or after dental procedures; conditions: local tranexamic acid as a supplement to systemic therapy; cited from earlier work
plasminogen = plasminogen (Homo sapiens, UniProt P00747); conditions: cited from earlier work
plasminogen, sequence (P00747 20-810 limits assumed): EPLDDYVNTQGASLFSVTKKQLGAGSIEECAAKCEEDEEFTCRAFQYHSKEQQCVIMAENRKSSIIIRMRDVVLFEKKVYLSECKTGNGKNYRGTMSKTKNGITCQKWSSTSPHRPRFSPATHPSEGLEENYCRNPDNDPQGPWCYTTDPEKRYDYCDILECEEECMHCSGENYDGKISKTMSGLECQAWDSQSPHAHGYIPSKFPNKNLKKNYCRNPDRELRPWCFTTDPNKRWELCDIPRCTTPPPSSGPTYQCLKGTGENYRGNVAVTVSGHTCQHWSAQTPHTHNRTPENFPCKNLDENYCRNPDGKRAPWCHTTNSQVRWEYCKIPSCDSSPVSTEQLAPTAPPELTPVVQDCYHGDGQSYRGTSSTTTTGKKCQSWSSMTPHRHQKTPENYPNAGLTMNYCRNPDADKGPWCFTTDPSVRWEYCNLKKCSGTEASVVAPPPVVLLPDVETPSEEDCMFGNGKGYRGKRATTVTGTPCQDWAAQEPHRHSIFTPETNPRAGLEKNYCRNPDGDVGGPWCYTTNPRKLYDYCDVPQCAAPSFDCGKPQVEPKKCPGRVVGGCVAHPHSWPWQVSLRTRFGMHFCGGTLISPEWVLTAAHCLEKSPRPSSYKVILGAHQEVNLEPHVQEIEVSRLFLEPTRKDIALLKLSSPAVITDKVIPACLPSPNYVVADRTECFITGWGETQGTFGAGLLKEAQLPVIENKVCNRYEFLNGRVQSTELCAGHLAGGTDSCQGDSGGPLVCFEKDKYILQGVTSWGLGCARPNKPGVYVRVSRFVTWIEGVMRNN

[2] = system: whole blood or citrated blood from normal subjects; conditions: cited from earlier work
[3] = cited from earlier work
[4] = cited from earlier work; remark: listed apart in the source
plasma protein = conditions: cited from earlier work
[5] = Binary mixtures study: discoloration at 60° C., visual inspection; format: physicochemical; conditions: binary mixture with TXA in phosphoric acid solution pH 5.5, glass vials, 60° C. oven, 2 weeks
Experimental: To determine which components of the formulation were responsible for the discoloration, binary mixtures of TXA and each component were dissolved in phosphoric acid solution at pH 5.5 in amounts representative to their concentration in Formulation A of Table 1A.
Samples of each mixture in Table 1B were placed in glass vials and stored in 60° C. oven for 2 weeks and visually inspected periodically for discoloration. The samples from Table 1B containing TXA and Sorbitol (sample 5), or TXA and Glycerin (sample 3), or TXA and Poloxamer 407 (sample 6), or TXA and spearmint flavor F-4785, turned yellow. Thus sorbitol, glycerin, poloxamer 407 and spearmint flavor were considered to be the ingredients responsible for the discoloration of formula A.
Binary mixtures of TXA and alternative surfactants were prepared and samples were stored in a 60° C. oven to test for discoloration as described in Table 2.
Binary mixtures of Na CMC and TXA were prepared and stored at 60° C. for 2 weeks to test for discoloration as in Table 3.

[6] = after oral and intravenous administration
[7] = four doses of 10-20 mg per kg body weight 36-48 hours before surgery
[8] = three hours after a single oral dose of 25 mg per kg body weight

serum albumin, sequence (P02768 25-609): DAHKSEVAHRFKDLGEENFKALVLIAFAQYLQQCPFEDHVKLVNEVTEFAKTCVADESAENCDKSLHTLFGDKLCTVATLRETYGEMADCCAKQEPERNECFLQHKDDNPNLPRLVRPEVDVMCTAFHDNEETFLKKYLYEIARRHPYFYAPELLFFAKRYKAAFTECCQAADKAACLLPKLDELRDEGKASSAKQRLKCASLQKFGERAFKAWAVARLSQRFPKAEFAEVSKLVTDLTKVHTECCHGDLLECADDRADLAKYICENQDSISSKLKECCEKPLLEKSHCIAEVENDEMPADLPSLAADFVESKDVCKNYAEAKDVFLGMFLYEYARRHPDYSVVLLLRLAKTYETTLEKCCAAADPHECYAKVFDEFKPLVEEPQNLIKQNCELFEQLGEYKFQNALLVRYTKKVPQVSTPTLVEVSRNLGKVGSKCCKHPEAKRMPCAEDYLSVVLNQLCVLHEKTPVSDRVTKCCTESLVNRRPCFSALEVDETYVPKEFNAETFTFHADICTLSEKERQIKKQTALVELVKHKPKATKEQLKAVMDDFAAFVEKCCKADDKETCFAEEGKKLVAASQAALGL

For NC[C@H]1CC[C@H](C(=O)O)CC1 [tranexamic acid, trans-4-(aminomethyl) cyclohexanecarboxylic acid], the “binding to serum albumin” value (serum albumin) is given as “does not bind”, the “incidence of bleeding during or after dental procedures (postoperative bleeding)” value [1] is given as “significantly reduces” and the “binding to strong and weak sites in the plasminogen molecule relative to epsilon aminocaproic acid (EACA)” value (plasminogen) is given as “considerably more strongly”. For the same compound, the thrombin time ([2]; concentrations of 1 mg to 10 mg per mL blood) was “prolongs”, the “influence on the platelet count, the coagulation time, or various coagulation factors” value ([2]; concentrations up to 10 mg per mL blood, whole blood or citrated blood from normal subjects) was “no influence” and the excretion ([3]; 24 hours after oral administration of 10-15 mg per kg body weight) was 39%. The “concentration in fetal serum” value ([3]; after intravenous injection of 10 mg per kg body weight) was “about 30 μg per mL”, the acetylated product excreted ([3]; after oral administration) was ~0.5% and the “deaminated dicarboxylic acid excreted” value ([3]; after oral administration) was ~2%. For the same compound, the parent compound excreted ([3]; after oral administration) was “approximately 50%”, the “fibrinolytic activity of the semen” value [3, 6] was “inhibits” and the “motility of the spermatozoa” value [3, 6] was “without affecting”. The “passage into the semen” value [3, 6] was “passes into the semen”, the “concentration in breast milk relative to corresponding serum levels” value ([3]; during lactation) was 1/100 and the plasma concentration ([3]; five hours after intravenous 10 mg per kg body weight) was 5 μg per mL. The “time an antifibrinolytically active concentration (10 μg/mL) remained in the serum” value [3, 7] was 7 to 8 h, the “time an antifibrinolytically active concentration (10 μg/mL) remained in the tissues investigated” value [3, 7] was “up to 17 hours” and the “biological half-life in the joint fluid” value ([3]; in vivo) was “about 3 hours”. For the same compound, the “concentration in the joint fluid compared with the serum” value ([3]; in vivo) was “same concentration”, the “dose excreted in the urine as unchanged drug” value ([3]; in vivo) was “more than 95%” and the “fraction of the drug metabolized” value ([3]; in vivo) was “less than 5%”. The placental transfer ([3]; in vivo) was “crosses the placenta”, the “half-life for the terminal elimination phase” value ([3]; intravenous dose of 1 g) was “about 2 hours” and the plasma concentration ([3]; one hour after intravenous 10 mg per kg body weight) was 18.3 μg per mL. The excretion ([3]; one hour after intravenous administration of 10 mg per kg body weight) was “about 30%”, the excretion ([3]; one hour after oral administration of 10-15 mg per kg body weight) was 1% and the “effect of food intake on bioavailability” value ([3]; oral) was “not affected”. For the same compound, the “ability to cross the blood-brain barrier” value ([3]; patients with ruptured intracranial aneurysms) was “has been demonstrated”, the aqueous humor level [3, 8] was 1.6 mg per L and the peak serum level [3, 8] was 15.4 mg per L. For the same compound, the plasma concentration ([3]; three hours after intravenous 10 mg per kg body weight) was 9.6 μg per mL, the excretion ([3]; three hours after intravenous administration of 10 mg per kg body weight) was ~55% and the excretion ([3]; three hours after oral administration of 10-15 mg per kg body weight) was 7%. The “concentrations in saliva, initially” value ([4]; after mouth rinse) was “above 200 μg per mL”, the plasma concentrations ([4]; after mouth rinse) was “below 2 μg per mL” and the “time saliva concentrations remained above therapeutic levels” value ([4]; after mouth rinse) was “more than 2 hours”. For the same compound, the saliva levels ([4]; after oral administration, any time point) was “undetectable”, the “maximum mean plasma concentration” value ([4]; after oral administration) was ~7 μg per mL and the “time to maximum mean plasma concentration” value ([4]; after oral administration) was 120 min. For the same compound, the plasma protein binding (plasma protein; at therapeutic plasma levels of 5-10 mg/L) was “negligible” and the plasma protein binding (plasma protein; at therapeutic plasma levels) was “about 3%”.
With “beta-D-Fructofuranosyl-alpha-D-glucopyranoside, monododecanoate [Sucrose Laurate]” the Discoloration [5] was “didn't cause discoloration”.
In the case of “polyoxyethylene (20)sorbitan monooleate [Tween 80]”, the Discoloration [5] is reported as “didn't cause discoloration”.
In the case of “polyoxyethylene sorbitan monolaurate [Tween 20]”, the Discoloration [5] is reported as “didn't cause discoloration”.
For “alpha-D-Glucopyranoside, beta-D-fructofuranosyl, monooctadecanoate [Sucrose Stearate]”, the Discoloration [5] was “did not dissolve into solution”.
